Literature values, collected in patent US7432380B2, “Crystalline form of Fluvastatin sodium” (Ciba Specialty Chemicals Corp., priority 2003, dated 2008).

Conditions: relative air humidity of surrounding atmosphere; from WO-A-03/13512

CC(C)n1c(/C=C/[C@H](O)C[C@H](O)CC(=O)[O-])c(-c2ccc(F)cc2)c2ccccc21.[Na+] [Form F]
air humidity of atmospheres in which the form is stable: up to 90%
